{
  "source": "the Kinase Knowledgebase extract (Sharma et al. 2016)",
  "key": {"MAPK14": {"molecular_target": "MAPK14 (UniProt Q16539)", "sequence (Q16539 whole entry, looked up)": "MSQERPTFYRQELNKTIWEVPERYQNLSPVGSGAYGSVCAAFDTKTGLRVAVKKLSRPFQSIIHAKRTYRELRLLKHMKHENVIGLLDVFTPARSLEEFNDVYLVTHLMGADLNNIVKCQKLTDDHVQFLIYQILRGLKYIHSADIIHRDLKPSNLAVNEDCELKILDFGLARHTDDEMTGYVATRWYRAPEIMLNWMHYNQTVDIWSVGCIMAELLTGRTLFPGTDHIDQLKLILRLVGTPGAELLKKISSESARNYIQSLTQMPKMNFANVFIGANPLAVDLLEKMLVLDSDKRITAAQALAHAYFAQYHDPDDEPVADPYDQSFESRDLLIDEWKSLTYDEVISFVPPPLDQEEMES", "test": "p38-alpha Inhibition"}, "MAPK14 (human)": {"molecular_target": "MAPK14 (human) (UniProt Q16539)", "sequence (Q16539 whole entry, looked up)": "as above", "test": "p38 --- TNFalpha Release Inhibition", "details": "monocyte"}, "MAPK14 (Lewis rat)": {"tested_on": "MAPK14 (Lewis rat)", "test": "Adjuvant-Induced Arthritis Model"}},
  "note": "Where “and” joins values, the source holds several entries; their conditions need not be identical. Equal entries are not always repeated.",
  "data": [
    {"compound": "Fc1ccc(-c2[nH]c(-c3ccc(Cl)cc3)cc2-c2ccccn2)cc1", "values": [
      {"measurement": "IC50", "setting": "MAPK14", "value": "> 10000", "unit": "nM"}
    ]},
    {"compound": "O=c1c(-c2ccncc2)c(-c2ccc(F)cc2)[nH]n1-c1ccc(Cl)cc1", "values": [
      {"measurement": "inhibition", "setting": "MAPK14; concentration not given here", "value": 43, "unit": "%"}
    ]},
    {"compound": "C[S+]([O-])c1ccc(-c2cc(-c3ccncc3)c(-c3ccc(F)cc3)[nH]2)cc1", "note": "(stereo not given)", "values": [
      {"measurement": "IC50", "setting": "MAPK14 (human)", "value": 65, "unit": "nM"},
      {"measurement": "ID50", "setting": "MAPK14 (Lewis rat)", "value": 7.4, "unit": "mg/kg/day"},
      {"measurement": "score", "setting": "MAPK14 (Lewis rat)", "value": "3.6 and 1.6"}
    ]},
    {"compound": "CS(=O)(=O)c1ccc(-c2cc(-c3ccncc3)c(-c3ccc(F)cc3)[nH]2)cc1", "values": [
      {"measurement": "IC50", "setting": "MAPK14 (human)", "value": 23, "unit": "nM"}
    ]},
    {"compound": "COc1ccc2c(c1)c(CC(=O)O)c(C)n2C(=O)c1ccc(Cl)cc1", "values": [
      {"measurement": "score", "setting": "MAPK14 (Lewis rat)", "value": "4.9 and 2.9"}
    ]},
    {"compound": "CC(C)(C)Oc1ccc(-c2[nH]c(-c3ccccc3)cc2-c2ccncc2)cc1", "values": [
      {"measurement": "IC50", "setting": "MAPK14", "value": "> 1000", "unit": "nM"}
    ]},
    {"compound": "Fc1ccc(-c2[nH]c(-c3ccc(Br)cc3)cc2-c2ccncc2)cc1", "values": [
      {"measurement": "IC50", "setting": "MAPK14", "value": 100, "unit": "nM"}
    ]},
    {"compound": "CCOC(=O)c1ccc(-c2[nH]c(-c3ccccc3)cc2-c2ccncc2)cc1", "values": [
      {"measurement": "IC50", "setting": "MAPK14", "value": "> 10000", "unit": "nM"}
    ]}
  ]
}
